The target of one assay is SUMO E1/E2 (Homo sapiens, UniProt P63279+Q9UBE0+Q9UBT2). Put plainly: SAR analysis of SUMOylation using HTRF in an in-Vitro dose response assay. [Related pubchem assays (depositor defined):AID2006, AID2011, AID2018, AID2069, AID2658]. It is filed as functional. (TR-FRET usually uses a lanthanide donor and a delayed reading to cut background.)
The target in assay [1] is T1, Tyrosine-protein phosphatase non-receptor type 7 (Homo sapiens, UniProt P35236).
T1 sequence (P35236 whole entry): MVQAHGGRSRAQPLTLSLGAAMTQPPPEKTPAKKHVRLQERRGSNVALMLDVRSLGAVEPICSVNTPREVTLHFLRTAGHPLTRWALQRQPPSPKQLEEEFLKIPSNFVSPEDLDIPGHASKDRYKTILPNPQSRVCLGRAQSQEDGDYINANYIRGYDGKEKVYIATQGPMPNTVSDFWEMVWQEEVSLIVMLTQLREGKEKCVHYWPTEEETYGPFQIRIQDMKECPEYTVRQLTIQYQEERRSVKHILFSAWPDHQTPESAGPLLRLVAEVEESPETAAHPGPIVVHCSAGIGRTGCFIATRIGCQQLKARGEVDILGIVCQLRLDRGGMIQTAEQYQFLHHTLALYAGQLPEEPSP
It is filed as functional.

A short description of assay [2]: Trypanosoma cruzi growth suppression in host cells – NIH3T3 host cells, beta-gal luminescence, confirmation (AID 2044).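 Further: intracellular parasites grown in NIH/3T3 mouse fibroblasts as host cells; luminescent beta-galactosidase reporter signal from transgenic T. cruzi replicating inside host cells; inhibitors lower the luminescence signal.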 It is filed as functional, cell-based.
A short description of assay [3]: NIH3T3 cell viability loss – ATP luminescence, mouse fibroblasts, counter-screen, dose response (AID 2010).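 Further: cells exposed to compound for about 90 hours before reading.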 It is filed as functional, cell-based. For orientation: Counterscreens check selectivity or assay interference.
For assay [4], the target named is T2, Tyrosine-protein phosphatase non-receptor type 22 (Homo sapiens, UniProt Q9Y2R2).
T2 sequence (Q9Y2R2 whole entry): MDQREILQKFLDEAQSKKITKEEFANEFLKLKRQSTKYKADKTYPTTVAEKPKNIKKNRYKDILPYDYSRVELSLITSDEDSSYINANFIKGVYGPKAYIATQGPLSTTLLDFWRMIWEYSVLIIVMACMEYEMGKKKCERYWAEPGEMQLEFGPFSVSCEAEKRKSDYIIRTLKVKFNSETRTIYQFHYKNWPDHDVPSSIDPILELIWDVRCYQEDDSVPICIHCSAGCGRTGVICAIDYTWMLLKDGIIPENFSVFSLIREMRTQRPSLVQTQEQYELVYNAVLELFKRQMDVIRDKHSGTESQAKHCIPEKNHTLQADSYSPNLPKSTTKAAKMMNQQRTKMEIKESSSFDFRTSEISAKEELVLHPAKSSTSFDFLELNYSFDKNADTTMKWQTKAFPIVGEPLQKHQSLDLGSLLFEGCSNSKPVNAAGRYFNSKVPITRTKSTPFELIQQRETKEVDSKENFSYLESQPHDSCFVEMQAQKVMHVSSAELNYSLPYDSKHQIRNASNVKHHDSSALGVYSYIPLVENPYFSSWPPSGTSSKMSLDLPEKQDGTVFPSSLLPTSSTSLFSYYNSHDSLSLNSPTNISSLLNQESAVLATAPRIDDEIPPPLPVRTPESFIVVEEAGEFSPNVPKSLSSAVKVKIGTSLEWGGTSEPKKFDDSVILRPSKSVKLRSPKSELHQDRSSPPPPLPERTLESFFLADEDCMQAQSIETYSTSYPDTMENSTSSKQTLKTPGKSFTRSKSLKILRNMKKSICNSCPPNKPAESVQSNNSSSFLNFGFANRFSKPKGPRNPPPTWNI
Format: functional.

For assay [5], the target named is T2, Tyrosine-protein phosphatase non-receptor type 22. Format: functional. The source holds these as a separate data set.
The target of assay [6] is DNA dC->dU-editing enzyme APOBEC-3G (Homo sapiens, UniProt Q9HC16). Description: Dose Response confirmation of small molecule APOBEC3G DNA Deaminase Inhibitors via a fluorescence-based single-stranded DNA deaminase assay. [Related pubchem assays (depositor defined):AID493012, AID493028]. It is filed as functional.
Assay [7] has as its target Lysine-specific demethylase 4A (Homo sapiens, UniProt O75164). Description: inhibition of JMJD2A H3K9me3 demethylation – biochemical, DELFIA europium, cherry-picked samples, selectivity assay for GASC-1 inhibitor project, dose response (AID 488840).
The target in assay [8] is Lysine-specific demethylase 4C (Homo sapiens, UniProt Q9H3R0). Put plainly: inhibition of JMJD2C H3K9me3 demethylation – biochemical, DELFIA europium, cherry-picked samples, dose response (AID 488835). Format: functional.
Assay [9] has as its target Tyrosyl-DNA phosphodiesterase 2 (Homo sapiens, UniProt O95551). Description: potency against TDP2 phosphodiesterase activity – biochemical, epi absorbance, IC50, dose response (AID 743297).
Assay [10] has as its system BJ. Description: BJ-TERT fibroblast viability loss – cell-based, RAS-independent, luminescence, dose response (AID 1933). It is filed as functional. The following applies: Homo sapiens.
Assay [11] concerns BJ. Put plainly: cells. The following applies: Homo sapiens. It is filed as functional, cell-based.
Assay [12] has as its system BJ. Put plainly: BJ-TERT-LT-ST fibroblast viability loss – cell-based, RAS-independent, luminescence, dose response (AID 1935).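 Further: BJ fibroblasts immortalized with TERT plus LT and ST oncogenes.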 The following applies: Homo sapiens. It is filed as functional.
Assay [13] can be described thus: DRD fibroblast viability loss – cell-based, non-viral oncogenic, luminescence, dose response (AID 1934). Format: functional. The following applies: Homo sapiens.
For assay [14], the target named is T3, G-protein coupled receptor 55 (Homo sapiens, UniProt Q9Y2T6). Put plainly: selective activators of receptor GPR55 – imaging, U2OS cells, beta-arrestin-GFP redistribution, primary screen (AID 1961). Format: functional.
The target of assay [15] is T4, Cannabinoid receptor 2 (Homo sapiens, UniProt P34972). Description: SAR analysis of antagonists of the Cannabinoid Receptor 2 using an Image-Based Assay - Set 2. [Related pubchem assays (depositor defined):AID1961, AID1965]. Format: functional.
Assay [16] in a line: Luminescence Cell-Based Dose Retest to Confirm Inhibitors of Cancer Stem Cells. [Related pubchem assays (depositor defined):AID2717, AID2721]. Format: functional. The following applies: Homo sapiens.
In assay [17] the target is T4, Cannabinoid receptor 2. Put plainly: SAR analysis of agonists of the Cannabinoid Receptor 2 using an Image-Based Assay - Set 2. [Related pubchem assays (depositor defined):AID1961, AID1965]. Format: functional.
The target of assay [18] is T3, G-protein coupled receptor 55. Put plainly: SAR analysis of selective Agonists of GPR55 using an Image-Based Assay. [Related pubchem assays (depositor defined):AID1961, AID1965]. It is filed as functional.
The target in a further assay is Cannabinoid receptor 1 (Homo sapiens, UniProt P21554). Description: SAR analysis of antagonists of the Cannabinoid Receptor 1 using an Image-Based Assay. [Related pubchem assays (depositor defined):AID1961, AID1965]. Format: functional.

The source of these data is ChEMBL document CHEMBL1201862, “PubChem BioAssay data set” (2004).

Active and inactive are the calls of the source.

T4 sequence (P34972 whole entry): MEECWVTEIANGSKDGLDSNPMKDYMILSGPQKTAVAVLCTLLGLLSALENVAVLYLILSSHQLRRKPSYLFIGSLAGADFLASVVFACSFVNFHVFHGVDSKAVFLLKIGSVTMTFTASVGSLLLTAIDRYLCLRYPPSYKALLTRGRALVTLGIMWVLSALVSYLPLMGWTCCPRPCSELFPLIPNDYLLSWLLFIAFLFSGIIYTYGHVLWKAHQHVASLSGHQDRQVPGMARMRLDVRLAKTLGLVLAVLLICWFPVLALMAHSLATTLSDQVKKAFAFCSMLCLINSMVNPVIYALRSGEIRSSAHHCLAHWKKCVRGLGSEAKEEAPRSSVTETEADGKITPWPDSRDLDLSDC
T3 sequence (Q9Y2T6 whole entry): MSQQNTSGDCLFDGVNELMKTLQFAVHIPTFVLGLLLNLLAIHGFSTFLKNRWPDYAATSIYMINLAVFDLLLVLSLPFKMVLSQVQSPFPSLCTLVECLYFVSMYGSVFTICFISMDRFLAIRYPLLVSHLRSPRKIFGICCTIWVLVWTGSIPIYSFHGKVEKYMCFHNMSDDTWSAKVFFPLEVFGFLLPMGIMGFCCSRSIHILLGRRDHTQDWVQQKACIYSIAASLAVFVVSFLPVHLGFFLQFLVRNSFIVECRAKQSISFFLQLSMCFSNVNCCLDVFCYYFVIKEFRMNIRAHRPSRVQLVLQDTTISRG
Sequence of Cannabinoid receptor 1 (P21554 whole entry): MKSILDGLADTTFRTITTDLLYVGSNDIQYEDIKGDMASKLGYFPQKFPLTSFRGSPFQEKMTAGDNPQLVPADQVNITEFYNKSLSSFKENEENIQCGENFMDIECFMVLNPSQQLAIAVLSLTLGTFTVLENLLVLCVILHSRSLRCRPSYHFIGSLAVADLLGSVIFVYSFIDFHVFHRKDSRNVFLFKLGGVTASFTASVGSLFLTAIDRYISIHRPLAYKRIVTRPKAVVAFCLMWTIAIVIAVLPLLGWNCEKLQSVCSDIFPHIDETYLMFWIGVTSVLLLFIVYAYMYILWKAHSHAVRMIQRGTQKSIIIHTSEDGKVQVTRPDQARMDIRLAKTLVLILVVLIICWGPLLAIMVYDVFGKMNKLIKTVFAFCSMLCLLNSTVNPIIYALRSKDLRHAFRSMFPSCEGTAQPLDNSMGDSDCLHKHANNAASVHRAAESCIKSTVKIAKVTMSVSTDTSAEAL
Sequence of Lysine-specific demethylase 4C (Q9H3R0 whole entry): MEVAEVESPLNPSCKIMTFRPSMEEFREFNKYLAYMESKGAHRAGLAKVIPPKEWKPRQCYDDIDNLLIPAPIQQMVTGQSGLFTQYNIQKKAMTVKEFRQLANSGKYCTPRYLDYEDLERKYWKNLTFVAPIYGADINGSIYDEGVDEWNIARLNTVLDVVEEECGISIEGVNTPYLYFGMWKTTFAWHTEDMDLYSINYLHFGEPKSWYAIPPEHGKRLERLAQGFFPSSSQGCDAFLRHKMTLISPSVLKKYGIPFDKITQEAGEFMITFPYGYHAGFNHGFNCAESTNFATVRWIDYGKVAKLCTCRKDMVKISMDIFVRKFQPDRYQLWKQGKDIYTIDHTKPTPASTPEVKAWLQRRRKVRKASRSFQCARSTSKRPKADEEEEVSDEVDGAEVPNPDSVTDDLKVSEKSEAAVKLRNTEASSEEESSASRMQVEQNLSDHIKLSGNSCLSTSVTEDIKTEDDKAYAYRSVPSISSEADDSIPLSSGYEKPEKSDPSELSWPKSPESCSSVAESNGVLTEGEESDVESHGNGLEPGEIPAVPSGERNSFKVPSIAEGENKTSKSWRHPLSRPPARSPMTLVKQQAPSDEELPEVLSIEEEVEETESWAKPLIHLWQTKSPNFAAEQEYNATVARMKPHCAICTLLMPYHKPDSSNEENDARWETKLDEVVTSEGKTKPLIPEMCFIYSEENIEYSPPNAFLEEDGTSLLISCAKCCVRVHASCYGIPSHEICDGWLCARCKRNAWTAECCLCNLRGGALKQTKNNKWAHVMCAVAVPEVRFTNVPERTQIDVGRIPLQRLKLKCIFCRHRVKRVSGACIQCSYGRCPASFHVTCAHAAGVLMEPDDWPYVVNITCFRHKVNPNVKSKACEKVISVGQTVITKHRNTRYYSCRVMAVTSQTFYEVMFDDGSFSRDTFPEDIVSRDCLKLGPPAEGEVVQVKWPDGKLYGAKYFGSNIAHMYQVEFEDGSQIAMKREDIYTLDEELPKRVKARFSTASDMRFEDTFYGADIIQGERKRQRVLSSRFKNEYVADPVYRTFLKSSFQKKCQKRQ
Sequence of SUMO E1/E2 (Q9UBE0 whole entry): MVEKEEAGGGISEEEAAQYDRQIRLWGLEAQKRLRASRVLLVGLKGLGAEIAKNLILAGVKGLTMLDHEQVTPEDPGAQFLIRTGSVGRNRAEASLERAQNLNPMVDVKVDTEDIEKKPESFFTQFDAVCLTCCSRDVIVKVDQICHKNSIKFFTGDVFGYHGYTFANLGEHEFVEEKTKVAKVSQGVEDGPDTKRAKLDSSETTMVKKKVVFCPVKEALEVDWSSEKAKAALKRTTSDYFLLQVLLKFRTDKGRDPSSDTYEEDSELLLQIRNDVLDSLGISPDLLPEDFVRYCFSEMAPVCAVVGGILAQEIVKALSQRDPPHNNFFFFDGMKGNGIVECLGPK
Sequence of SUMO E1/E2 (Q9UBT2 whole entry): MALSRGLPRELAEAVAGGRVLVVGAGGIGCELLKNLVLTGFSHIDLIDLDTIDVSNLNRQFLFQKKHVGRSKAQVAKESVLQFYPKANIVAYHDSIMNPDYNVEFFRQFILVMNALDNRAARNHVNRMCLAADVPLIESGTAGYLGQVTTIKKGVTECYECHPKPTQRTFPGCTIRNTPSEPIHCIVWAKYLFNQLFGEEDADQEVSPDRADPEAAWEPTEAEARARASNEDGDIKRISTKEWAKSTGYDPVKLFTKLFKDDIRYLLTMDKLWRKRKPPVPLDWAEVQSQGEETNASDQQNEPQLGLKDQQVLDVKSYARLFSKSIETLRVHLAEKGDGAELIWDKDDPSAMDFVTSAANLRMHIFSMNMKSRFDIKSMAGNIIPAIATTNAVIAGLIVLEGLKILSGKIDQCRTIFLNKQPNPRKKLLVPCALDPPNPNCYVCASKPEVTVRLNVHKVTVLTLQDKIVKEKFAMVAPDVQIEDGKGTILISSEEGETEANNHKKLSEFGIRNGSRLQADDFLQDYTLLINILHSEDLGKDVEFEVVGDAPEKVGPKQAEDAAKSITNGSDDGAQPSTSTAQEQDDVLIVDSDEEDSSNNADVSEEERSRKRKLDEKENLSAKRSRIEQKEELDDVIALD
Sequence of SUMO E1/E2 (P63279 whole entry): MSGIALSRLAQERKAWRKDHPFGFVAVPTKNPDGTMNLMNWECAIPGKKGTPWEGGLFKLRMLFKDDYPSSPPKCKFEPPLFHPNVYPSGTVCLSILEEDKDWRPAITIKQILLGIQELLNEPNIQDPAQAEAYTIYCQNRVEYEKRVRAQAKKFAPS
Sequence of Tyrosyl-DNA phosphodiesterase 2 (O95551 whole entry): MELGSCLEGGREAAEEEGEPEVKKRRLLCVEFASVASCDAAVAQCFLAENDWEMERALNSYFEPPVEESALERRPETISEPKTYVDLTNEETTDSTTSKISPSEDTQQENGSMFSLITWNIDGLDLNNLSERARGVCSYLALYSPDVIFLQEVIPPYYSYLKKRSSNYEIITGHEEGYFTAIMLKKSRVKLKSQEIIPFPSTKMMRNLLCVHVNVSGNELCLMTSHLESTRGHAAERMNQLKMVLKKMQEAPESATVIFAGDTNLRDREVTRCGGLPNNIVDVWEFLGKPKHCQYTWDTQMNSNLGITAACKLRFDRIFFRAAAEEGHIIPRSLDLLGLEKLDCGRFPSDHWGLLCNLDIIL
Sequence of Lysine-specific demethylase 4A (O75164 whole entry): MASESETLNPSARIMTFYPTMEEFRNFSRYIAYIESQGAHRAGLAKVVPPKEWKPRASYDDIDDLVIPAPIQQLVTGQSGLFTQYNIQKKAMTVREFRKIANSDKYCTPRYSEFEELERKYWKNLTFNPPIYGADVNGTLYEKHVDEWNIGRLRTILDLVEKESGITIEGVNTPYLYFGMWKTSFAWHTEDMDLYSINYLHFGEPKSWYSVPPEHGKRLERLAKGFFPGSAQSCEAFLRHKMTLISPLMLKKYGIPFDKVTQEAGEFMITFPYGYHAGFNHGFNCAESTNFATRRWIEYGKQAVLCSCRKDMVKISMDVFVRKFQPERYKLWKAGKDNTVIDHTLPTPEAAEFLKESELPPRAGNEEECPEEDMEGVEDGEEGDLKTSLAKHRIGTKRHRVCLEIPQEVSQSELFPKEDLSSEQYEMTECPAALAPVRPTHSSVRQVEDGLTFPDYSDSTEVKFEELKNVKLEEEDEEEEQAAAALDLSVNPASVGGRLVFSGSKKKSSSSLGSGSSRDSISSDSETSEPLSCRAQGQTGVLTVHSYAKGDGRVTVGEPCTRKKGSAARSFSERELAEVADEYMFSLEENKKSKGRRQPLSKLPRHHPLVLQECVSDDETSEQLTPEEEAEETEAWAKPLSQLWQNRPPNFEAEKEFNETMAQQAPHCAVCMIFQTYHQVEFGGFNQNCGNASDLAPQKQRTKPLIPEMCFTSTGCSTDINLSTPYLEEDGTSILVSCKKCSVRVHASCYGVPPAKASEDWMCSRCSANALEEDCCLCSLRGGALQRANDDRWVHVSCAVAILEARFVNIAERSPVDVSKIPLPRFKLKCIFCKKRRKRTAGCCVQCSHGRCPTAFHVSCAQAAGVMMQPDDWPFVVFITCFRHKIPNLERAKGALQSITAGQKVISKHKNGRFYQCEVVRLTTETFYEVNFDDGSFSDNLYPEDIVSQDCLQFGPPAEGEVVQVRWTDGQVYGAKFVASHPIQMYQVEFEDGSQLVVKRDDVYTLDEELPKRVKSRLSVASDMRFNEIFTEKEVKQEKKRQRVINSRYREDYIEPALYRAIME

The term IC50 denotes the concentration at which inhibition is half-maximal. Take `Sc1nnc(-c2cc(-c3ccccc3)[nH]n2)n1N=Cc1c(Cl)cccc1Cl`: the half-inhibitory concentration (IC50) on SUMO E1/E2 was 82 µM (active).
One may read the EC50 as the concentration giving half of the maximal effect. With `CCC(C)NCCOCCOc1ccc(Cl)c(C)c1C` (stereo not given), the IC50 in assay [1], in [4] and in assay [5] was > 79.4 µM (inactive) in each case. Moreover, the EC50 in [2] was 0.148 µM (active); in [3] it was 9.69 µM (active).
Broadly, the AC50 is the concentration giving half of the maximal activity seen. `O=C1NC(=O)C(Sc2ccccc2[N+](=O)[O-])C(=O)N1`: the half-inhibitory concentration (IC50) was 52.7 µM (active) in assay [6] and 36.3 µM (inactive) in [9]. Further, the results for the AC50 in assay [7] and in assay [8] were 2.28 µM (active) and 1.23 µM (active), respectively.
As for `Cc1occc1C(=O)Nc1ccc(OCc2ccccc2)cc1`, the EC50 was 11.4 µM (active) with BJ [10]; 9.33 µM (active) in the assay with BJ [11]; > 150 µM (inconclusive) in the assay on BJ [12]; 9.29 µM (active) in assay [13]; 0.866 µM (active) in assay [14]; > 32 µM (inactive) at Cannabinoid receptor 2 [17]. Besides, the 50% effective concentration (EC50) in assay [18] is 0.544 µM (active). The IC50 on Cannabinoid receptor 2 [15] and on Cannabinoid receptor 1 was > 32 µM (inactive) each time. In [16], the half-maximal activity concentration (AC50) was 5.34 µM (active).
